Experimental data: patent US20190328753A1, “COMPOSITIONS AND METHODS FOR TREATING OCULAR DISEASES” (priority 2015, published 2019)
Where “and” joins values, the source holds several entries; their conditions need not be identical. Equal values may be shown once.

What was measured:
[1] = according to the literature; cited from earlier work
[2] = test system: patients with moderate to severe MGD; experiment: Clinical trial (Example 8): topical Spironolactone (3 mg/ml) in MGD, retrospective pre-post; settings: for improvement in self-reported global assessment scores / mean improvement in obstruction score / mean improvement in turbidity score / mean improvement in vascularity score / mean improvement in zone A score: positive = score decrease; for Anterior Blepharitis, mean change / Obstruction, mean change / Turbidity, mean change / Vascularity, mean change / Zone A, mean change / Anterior Blepharitis, Mean / Obstruction, Mean / Turbidity, Mean / Vascularity, Mean / Zone A, Mean: scale 0-4; for Subjective Global Assessment, mean change / Global Evaluation, Mean / Global Evaluation, mean change / Subjective Global Assessment, Mean: scale 0-10
[3] = baseline vs follow up 1, low Schirmer's, n=27
[4] = baseline vs follow up 1, low Schirmer's, n=27, scale 0-3
[5] = baseline vs follow up 1, normal Schirmer's, n=75
[6] = final follow-up, patients with >1 follow-ups, low Schirmer's, n=10
[7] = final follow-up, patients with >1 follow-ups, low Schirmer's, n=10, scale 0-3
[8] = final follow-up, patients with >1 follow-ups, normal Schirmer's, n=28
[9] = final follow-up, patients with >1 follow-ups, normal Schirmer's, n=28, scale 0-3
[10] = follow-up 1, low Schirmer's, n=27 (FIG. 10)
[11] = follow-up 1, normal Schirmer's, n=75 (FIG. 9)
[12] = follow-up 1, patients with >1 follow-ups, low Schirmer's, n=10
[13] = follow-up 1, patients with >1 follow-ups, low Schirmer's, n=10, scale 0-3
[14] = follow-up 1, patients with >1 follow-ups, normal Schirmer's, n=28
[15] = follow-up 1, patients with >1 follow-ups, normal Schirmer's, n=28, scale 0-3
[16] = follow-up 1 vs final follow-up, low Schirmer's, n=10
[17] = follow-up 1 vs final follow-up, low Schirmer's, n=10, scale 0-3
[18] = follow-up 1 vs final follow-up, normal Schirmer's, n=28
[19] = follow-up 1 vs final follow-up, normal Schirmer's, n=28, scale 0-3
[20] = post-treatment follow-up 1, low Schirmer's, n=27
[21] = post-treatment follow-up 1, low Schirmer's, n=27, scale 0-3
[22] = post-treatment follow-up 1, normal Schirmer's, n=75
[23] = post-treatment follow-up 1, normal Schirmer's, n=75, scale 0-3

## CC(=O)SC1CC2=CC(=O)CCC2(C)C2CCC3(C)C(CCC34CCC(=O)O4)C12 (stereo not drawn) [spironolactone, 7α-acetylthio-3-oxo-17α-pregn-4-ene-21,17-carbolactone]
[1]
  solubility in water: practically insoluble in water
[2]; [3]
  Schirmer's OD, mean change: 2.61±7.03 mm and 2.611 mm
  Schirmer's OS, mean change: 2.33±4.74 mm and 2.327 mm
  Vision OS, mean change: −0.0198±0.078 log Mar units and −0.0198 log Mar units
  improvement in self-reported global assessment scores: 0.98±2.18
  mean improvement in obstruction score: 0.39±1.48
  mean improvement in turbidity score: 0.69±0.76
  mean improvement in vascularity score: 0.33±0.55
  mean improvement in zone A score: 0.63±1.21
  Anterior Blepharitis, mean change: 0.0±0.64 and 0
  Obstruction, mean change: −0.3889
  Turbidity, mean change: −0.6852
  Vascularity, mean change: −0.3333
  Zone A, mean change: −0.6296
  Subjective Global Assessment, mean change: −0.9815
[2]; [4]
  Keratitis OS Corneal, mean change: 0±0.4 and 0
  Keratitis OS Nasal, mean change: 0.15±0.70 and 0.1538
  Keratitis OS Temporal, mean change: 0.038±0.56 and 0.03846
[2]; [5]
  Schirmer's OD, mean change: 0.11±8.07 mm and 0.1096 mm
  Schirmer's OS, mean change: 0.92±9.43 mm and 0.9178 mm
  improvement in self-reported global assessment scores: 1.29±1.80
  mean improvement in obstruction score: 0.36±0.90
  mean improvement in turbidity score: 0.93±0.73
  mean improvement in vascularity score: 0.31±0.713
  mean improvement in zone A score: 0.53±0.83
  Anterior Blepharitis, mean change: 0.04±0.70 and 0.04
  Obstruction, mean change: −0.3633
  Turbidity, mean change: −0.9267
  Vascularity, mean change: −0.31
  Zone A, mean change: −0.5533
  Subjective Global Assessment, mean change: −1.287
[2]; baseline vs follow up 1, normal Schirmer's, n=75, scale 0-3
  Keratitis OS Corneal, mean change: 0±0.32 and 0
[2]; [6]
  Schirmer's OD, Mean: 11.7±10.94 and 11.7
  Schirmer's OS, Mean: 8.78±9.98 and 8.778
  Vision OD, Mean: 0.13±0.15 log Mar units and 0.1264 log Mar units
  Vision OS, Mean: 0.11±0.11 log Mar units and 0.1059 log Mar units
  Anterior Blepharitis, Mean: 0.2±0.42 and 0.2
  Obstruction, Mean: 0.75±0.42 and 0.75
  Turbidity, Mean: 2.1±0.74 and 2.1
  Vascularity, Mean: 1.4±0.77 and 1.4
  Zone A, Mean: 2.8±0.79 and 2.8
  Global Evaluation, Mean: 4.4±2.62 and 4.4
[2]; [7]
  Keratitis OD Corneal, Mean: 0.0±0.0 and 0
  Keratitis OD Nasal, Mean: 0.75±0.63 and 0.75
  Keratitis OD Temporal, Mean: 0.7±0.71 and 0.7
  Keratitis OS Corneal, Mean: 0.33±0.5 and 0.3333
  Keratitis OS Nasal, Mean: 1.06±0.92 and 1.056
  Keratitis OS Temporal, Mean: 0.83±0.79 and 0.8333
[2]; [8]
  Schirmer's OD, Mean: 18.52±9.83 and 18.52
  Schirmer's OS, Mean: 17.04±8.48 and 17.04
  Vision OD, Mean: 0.05±0.18 log Mar units and 0.04593 log Mar units
  Vision OS, Mean: 0.05±0.12 log Mar units and 0.04933 log Mar units
  Anterior Blepharitis, Mean: 0.32±0.78 and 0.3214
  Obstruction, Mean: 1.05±0.71 and 1.054
  Turbidity, Mean: 1.80±0.83 and 1.804
  Vascularity, Mean: 1.13±0.91 and 1.125
  Zone A, Mean: 2.71±0.80 and 2.714
  Global Evaluation, Mean: 3.55±1.30 and 3.554
[2]; [9]
  Keratitis OD Corneal, Mean: 0.0±0.0 and 0
  Keratitis OD Nasal, Mean: 0.63±0.63 and 0.625
  Keratitis OD Temporal, Mean: 0.55±0.60 and 0.5536
  Keratitis OS Corneal, Mean: 0.16±0.49 and 0.1607
  Keratitis OS Nasal, Mean: 0.75±0.57 and 0.75
  Keratitis OS Temporal, Mean: 0.70±0.57 and 0.6964
[2]; follow-up 1, low Schirmer's, n=27
  increase in Schirmer's I scores: approximately 40%
[2]; [10]
  percent reduction in Global Evaluation score from baseline: 22.98%
  percent reduction in Turbidity score from baseline: 30.70%
  percent reduction in Vascularity score from baseline: 30.48%
  percent reduction in Zone A score from baseline: 22.65%
[2]; [11]
  percent reduction in Global Evaluation score from baseline: 27.52%
  percent reduction in Obstruction score from baseline: 31.23%
  percent reduction in Turbidity score from baseline: 41.82%
  percent reduction in Vascularity score from baseline: 24.51%
  percent reduction in Zone A score from baseline: 19.86%
[2]; [12]
  Schirmer's OD, Mean: 8.8±6.7 and 8.8
  Schirmer's OS, Mean: 7.22±5.19 and 7.222
  Vision OD, Mean: 0.07±0.10 log Mar units and 0.06633 log Mar units
  Vision OS, Mean: 0.09±0.14 log Mar units and 0.08737 log Mar units
  Anterior Blepharitis, Mean: 0.3±0.67 and 0.3
  Obstruction, Mean: 1.35±1.06 and 1.35
  Turbidity, Mean: 1.95±0.76 and 1.95
  Vascularity, Mean: 1.1±0.88 and 1.1
  Zone A, Mean: 2.55±0.98 and 2.55
  Global Evaluation, Mean: 4.15±2.07 and 4.15
[2]; [13]
  Keratitis OD Corneal, Mean: 0.0±0.0 and 0
  Keratitis OD Nasal, Mean: 0.60±0.66 and 0.6
  Keratitis OD Temporal, Mean: 0.65±0.71 and 0.65
  Keratitis OS Corneal, Mean: 0.22±0.44 and 0.2222
  Keratitis OS Nasal, Mean: 1.28±0.57 and 1.278
  Keratitis OS Temporal, Mean: 1.0±0.66 and 1
[2]; [14]
  Schirmer's OD, Mean: 17.07±10.10 and 17.07
  Schirmer's OS, Mean: 17.50±10.42 and 17.5
  Vision OD, Mean: 0.07±0.20 log Mar units and 0.07437 log Mar units
  Vision OS, Mean: 0.09±0.15 log Mar units and 0.08826 log Mar units
  Anterior Blepharitis, Mean: 0.29±0.50 and 0.2857
  Obstruction, Mean: 1.12±0.83 and 1.116
  Turbidity, Mean: 1.96±0.62 and 1.964
  Vascularity, Mean: 1.42±0.84 and 1.42
  Zone A, Mean: 2.59±0.82 and 2.589
  Global Evaluation, Mean: 4.32±1.53 and 4.321
[2]; [15]
  Keratitis OD Corneal, Mean: 0.0±0.0 and 0
  Keratitis OD Nasal, Mean: 0.64±0.72 and 0.6429
  Keratitis OD Temporal, Mean: 0.54±0.68 and 0.5357
  Keratitis OS Corneal, Mean: 0.14±0.52 and 0.1429
  Keratitis OS Nasal, Mean: 0.82±0.80 and 0.8214
  Keratitis OS Temporal, Mean: 0.71±0.80 and 0.7143
[2]; [16]
  Schirmer's OD, mean change: 2.9±4.93 and 2.9
  Schirmer's OS, mean change: 1.56±6.25 and 1.556
  Vision OD, mean change: 0.06±0.10 log units and 0.06011 log units
  Vision OS, mean change: 0.02±0.07 log units and 0.0185 log units
  mean improvement in obstruction score: 0.6±1.13
  Anterior Blepharitis, mean change: −0.1±0.57 and −0.1
  Obstruction, mean change: −0.6
  Turbidity, mean change: 0.15±0.82 and 0.15
  Vascularity, mean change: 0.3±0.63 and 0.3
  Zone A, mean change: 0.25±0.75 and 0.25
  Global Evaluation, mean change: 0.25±2.55 and 0.25
[2]; [17]
  Keratitis OD Corneal, mean change: 0
  Keratitis OD Nasal, mean change: 0.15
  Keratitis OD Temporal, mean change: 0.05
  Keratitis OS Corneal, mean change: 0.1111
  Keratitis OS Nasal, mean change: −0.2222
  Keratitis OS Temporal, mean change: −0.1667
[2]; [18]
  Schirmer's OD, mean change: 1.77±9.01 and 1.778
  improvement in self-reported global assessment scores: 0.77±1.36
  mean improvement in obstruction score: 0.06±0.87
  mean improvement in turbidity score: 0.16±1.00
  mean improvement in vascularity score: 0.29±0.79
  Anterior Blepharitis, mean change: 0.04±0.64 and 0.03571
  Obstruction, mean change: −0.0625
  Turbidity, mean change: −0.1607
  Vascularity, mean change: −0.2946
  Zone A, mean change: 0.13±0.69 and 0.125
  Global Evaluation, mean change: −0.7679
[2]; [19]
  Keratitis OD Corneal, mean change: 0.0±0.0 and 0
  Keratitis OD Temporal, mean change: 0.017±0.57 and 0.01786
  Keratitis OS Corneal, mean change: 0.018±0.21 and 0.01786
[2]; moderate to severe symptomatic MGD, 'as early as'
  time to improved symptoms of ocular irritation: 2 weeks
[2]; patients of the clinical trial
  side effects after topical administration: A small percentage of the patients reported a mild temporary burning sensation in the eye
[2]; post-treatment follow-up 1, low Schirmer's (5 or less), n=27
  Subjective Global Assessment, Mean: 3.78±1.68 and 3.778
[2]; [20]
  Schirmer's OD, Mean: 7.52±7.42 mm and 7.519 mm
  Schirmer's OS, Mean: 6.92±5.34 mm and 6.923 mm
  Vision OD, Mean: 0.05±0.12 log Mar units and 0.04681 log Mar units
  Vision OS, Mean: 0.13±0.30 log Mar units and 0.1307 log Mar units
  Anterior Blepharitis, Mean: 0.41±0.71 and 0.4074
  Obstruction, Mean: 1.13±1.05 and 1.13
  Turbidity, Mean: 1.89±0.91 and 1.889
  Vascularity, Mean: 0.93±0.829 and 0.9259
  Zone A, Mean: 2.46±1.13 and 2.463
[2]; [21]
  Keratitis OD Corneal, Mean: 0.07±0.38 and 0.07407
  Keratitis OD Nasal, Mean: 0.93±0.84 and 0.9259
  Keratitis OD Temporal, Mean: 0.74±0.91 and 0.7407
  Keratitis OS Corneal, Mean: 0.15±0.37 and 0.1538
  Keratitis OS Nasal, Mean: 1.19±0.87 and 1.192
  Keratitis OS Temporal, Mean: 0.96±0.82 and 0.9615
[2]; post-treatment follow-up 1, normal Schirmer's (>5), n=75
  Subjective Global Assessment, Mean: 4.03±1.57 and 4.033
[2]; [22]
  Schirmer's OD, Mean: 16.47±9.75 mm and 16.47 mm
  Schirmer's OS, Mean: 16.95±9.61 mm and 16.95 mm
  Vision OD, Mean: 0.08±0.18 log Mar units and 0.07686 log Mar units
  Vision OS, Mean: 0.11±0.22 log Mar units and 0.1115 log Mar units
  Anterior Blepharitis, Mean: 0.39±0.67 and 0.3867
  Obstruction, Mean: 0.98±0.69 and 0.9833
  Turbidity, Mean: 1.75±0.75 and 1.753
  Vascularity, Mean: 1.11±0.829 and 1.11
  Zone A, Mean: 2.51±0.88 and 2.513
[2]; [23]
  Keratitis OD Corneal, Mean: 0.007±0.06 and 0.006757
  Keratitis OD Nasal, Mean: 0.64±0.68 and 0.6419
  Keratitis OD Temporal, Mean: 0.45±0.64 and 0.4527
  Keratitis OS Corneal, Mean: 0.07±0.34 and 0.06757
  Keratitis OS Nasal, Mean: 0.72±0.73 and 0.723
  Keratitis OS Temporal, Mean: 0.57±0.69 and 0.5743
